# Target: T1, ligand binding domain of human ROR gamma (Homo sapiens, UniProt P51449)
# T1 construct: NM_001001523; expressed in transfected cells; host or cells: HEK293T
# T1 sequence (P51449 247-497 isoform P51449-2): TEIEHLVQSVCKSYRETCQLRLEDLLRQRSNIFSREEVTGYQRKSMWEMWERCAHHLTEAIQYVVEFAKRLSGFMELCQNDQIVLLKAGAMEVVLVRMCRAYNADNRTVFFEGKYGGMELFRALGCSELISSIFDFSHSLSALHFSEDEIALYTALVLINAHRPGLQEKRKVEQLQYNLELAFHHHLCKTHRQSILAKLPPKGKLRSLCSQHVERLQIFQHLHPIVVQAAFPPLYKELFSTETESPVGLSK
# Test: ROR gamma reporter gene assay (GAL4-RORγ LBD luciferase, Dual-Glo)
# Assay type: cell-based
# Details: HEK293T cells transfected with pM-ROR gamma, 8 concentrations 3.5 nM to 10.5 μM, 24 h incubation; read-out: result (pIC50, inhibition of RORγ transcriptional activity) (converted)
# Description: Luciferase reporter gene assay was used to assess inhibition of RORγ transcriptional activity.
# ROR gamma expression vector was prepared by inserting the ligand binding domain of human ROR gamma (amino acid 247-497 of Genbank Accession NO. NM_001001523) adjacent to the yeast GAL4 transcription factor DNA binding domain in the expression vector pM (Clontech). The resulting expression vector pM-ROR gamma was used in transfection experiments together with the pGL4 luciferase reporter plasmid (Promega) containing five copies of the UAS GAL4 recognition site and pRL-CMV plasmids (Promega) containing the constitutive CMV promoter and the renilla luciferase.
# For preparing transfection reagent/DNA mixture, 1 μg pM-ROR gamma, 1 μg pGL4 5×UAS, 625 pg pRL-CMV and 6.25 μL FuGENE™ HD transfection reagent (Promega) were mixed in 0.25 mL OPTI-MEM™ (Life technologies) at room temperature. At the same time, Negative control DNA mixture was prepared by using 1 μg pM empty vector instead of pM-ROR gamma plasmid. After a fifteen minute incubation, 0.25 mL of transfection reagent/DNA mixture was added to 1,000,000 of HEK293T cells (ATCC) in 5 mL of OPTI-MEM™ containing 10% Charcoal Stripped Fetal Bovine Serum.
# Transfected cells were seeded onto 384 well plate (10 μL/well) and the 7.5 nL of test compounds were added to the wells in 8 concentrations ranging from 3.5 nM to 10.5 μM. The compounds were dissolved in 100% DMSO and the final concentration of DMSO in the assay was 0.075%.
# After 24 h of incubation at 37° C., 5% CO2 in a cell culture incubator, the Dual-Glo™ Luciferase Assay System was used to detect activity according to the manufacturer's instructions (Promega, Cat. No.: E2920).
# Data was plotted and pIC50 values were calculated using the XLfit program (ID Business Solutions Ltd.).
row,IC50 [pM],Structure (SMILES)
1,245000,Cc1cncc(C)c1C(=O)CN(Cc1cc(F)cc(F)c1)C(=O)c1cnn([C@H]2CC[C@H](C(=O)O)CC2)c1C(F)(F)F [Example 52]
2,575000,"O=C(CN(Cc1ccc(F)cc1)C(=O)c1cnn([C@H]2CCC(C(=O)O)C2)c1C(F)(F)F)c1c(Cl)cncc1Cl (stereo in doubt) [Example 93, (1S,3S)-3-(4-((2-(3,5-dichloropyridin-4-yl)-2-oxoethyl)-((4-fluorophenyl)methyl)carbamoyl)-5-(trifluoromethyl)pyrazol-1-yl)cyclopentane-1-carboxylic acid]"
3,≥ 1e+07,"COc1cccc(Cl)c1[C@H](O)CN(CC(C)(C)C)C(=O)c1cnn([C@H]2CC[C@](C)(C(=O)O)CC2)c1C(F)(F)F [Example 357, trans-4-(4-(((2S)-2-(2-chloro-6-methoxyphenyl)-2-hydroxyethyl)-(2,2-dimethylpropyl)carbamoyl)-5-(trifluoromethyl)pyrazol-1-yl)-1-methylcyclohexane-1-carboxylic acid]"
4,112000,"O=C(CN(C(=O)c1cnn([C@H]2CC[C@H](C(=O)O)CC2)c1C(F)(F)F)[C@H]1CC[C@H](C(F)(F)F)CC1)c1c(Cl)cncc1Cl [Example 213, trans-4-(4-((2-(3,5-dichloropyridin-4-yl)-2-oxoethyl)-(4-(trifluoromethyl)cyclohexyl)carbamoyl)-5-(trifluoromethyl)pyrazol-1-yl)cyclohexane-1-carboxylic acid]"
5,21900,"CC1(C)[C@@H]2C[C@H](N(C[C@@H](O)c3c(F)cccc3Cl)C(=O)c3cnn([C@H]4CC[C@](C)(C(=O)O)CC4)c3C(F)(F)F)C[C@@H]21 [Example 355, trans-4-(4-((2-(2-chloro-6-fluorophenyl)-2-hydroxyethyl)((1R,3r,5S)-6,6-dimethylbicyclo[3.1.0]hexan-3-yl)carbamoyl)-5-(trifluoromethyl)-1H-pyrazol-1-yl)-1-methylcyclohexanecarboxylic acid]"
6,1.74e+06,"CC(C)(C)CN(C[C@@H](O)c1ncccc1Cl)C(=O)c1cnn([C@H]2CC[C@](C)(C(=O)O)CC2)c1C(F)(F)F (stereo in doubt) [Example 403, trans-4-(4-((2-(3-chloropyridin-2-yl)-2-hydroxyethyl)-(2,2-dimethylpropyl)carbamoyl)-5-(trifluoromethyl)pyrazol-1-yl)-1-methylcyclohexane-1-carboxylic acid]"
7,8320,"CCC(C)(C)CN(CC(=O)c1c(Cl)cc(Cl)cc1Cl)C(=O)c1cnn([C@H]2CC[C@](C)(C(=O)O)CC2)c1C(F)(F)F [Example 306, trans-4-(4-(2,2-dimethylbutyl-(2-oxo-2-(2,4,6-trichlorophenyl)ethyl)carbamoyl)-5-(trifluoromethyl)pyrazol-1-yl)-1-methylcyclohexane-1-carboxylic acid]"
8,17400,"C[C@]1(C(=O)O)CC[C@H](n2ncc(C(=O)N(Cc3cc(F)cc(F)c3)C[C@@H](F)c3c(Cl)cccc3Cl)c2C(F)(F)F)CC1 [Example 139, trans-4-(4-(((2S)-2-(2,6-dichlorophenyl)-2-fluoroethyl)-((3,5-difluorophenyl)methyl)carbamoyl)-5-(trifluoromethyl)pyrazol-1-yl)-1-methylcyclohexane-1-carboxylic acid]"
9,1.12e+06,"O=C(c1c(C(F)(F)F)nn([C@H]2CC[C@H](C(=O)O)CC2)c1C(F)(F)F)N(CCc1c(Cl)cncc1Cl)Cc1ccc(F)cc1 [Example 412, trans-4-(4-(2-(3,5-dichloropyridin-4-yl)ethyl-((4-fluorophenyl)methyl)carbamoyl)-3,5-bis(trifluoromethyl)pyrazol-1-yl)cyclohexane-1-carboxylic acid]"
10,110000,"CC(C)[C@H]1C[C@@H]1N(CC(=O)c1c(Cl)cncc1Cl)C(=O)c1cnn([C@H]2CC[C@](C)(C(=O)O)CC2)c1C(F)(F)F [Example 346, trans-4-(4-((2-(3,5-dichloropyridin-4-yl)-2-oxoethyl)-((1S,2R)-2-propan-2-ylcyclopropyl)carbamoyl)-5-(trifluoromethyl)pyrazol-1-yl)-1-methylcyclohexane-1-carboxylic acid]"
11,> 1e+07,"O=C1CC[C@H](CN(CC(=O)c2c(Cl)cncc2Cl)C(=O)c2cnn([C@H]3CC[C@H](C(=O)O)CC3)c2C(F)(F)F)N1 [Example 158, trans-4-(4-((2-(3,5-dichloropyridin-4-yl)-2-oxoethyl)-(((2R)-5-oxopyrrolidin-2-yl)methyl)carbamoyl)-5-(trifluoromethyl)pyrazol-1-yl)cyclohexane-1-carboxylic acid]"
12,155000,"O=C(CN(Cc1ccc(F)cc1)C(=O)c1cnn([C@H]2CC[C@H](C(=O)O)C2)c1C(F)(F)F)c1c(Cl)cncc1Cl [Example 92, (1S,3S)-3-(4-((2-(3,5-dichloropyridin-4-yl)-2-oxoethyl)-((4-fluorophenyl)methyl)carbamoyl)-5-(trifluoromethyl)pyrazol-1-yl)cyclopentane-1-carboxylic acid]"
13,162000,"CC(C)(C)C#CCN(CC(=O)c1c(Cl)cncc1Cl)C(=O)c1cnn([C@H]2CC[C@H](C(=O)O)CC2)c1C(F)(F)F [Example 110, trans-4-(4-((2-(3,5-dichloropyridin-4-yl)-2-oxoethyl)-(4,4-dimethylpent-2-ynyl)carbamoyl)-5-(trifluoromethyl)pyrazol-1-yl)cyclohexane-1-carboxylic acid]"
14,145000,"COc1cccc(Cl)c1C(O)CN(C(=O)c1cnn([C@H]2CC[C@](C)(C(=O)O)CC2)c1C(F)(F)F)C1CCC(C)(C)CC1 (stereo partly drawn) [Example 336, trans-4-(4-((2-(2-chloro-6-methoxyphenyl)-2-hydroxyethyl)-(4,4-dimethylcyclohexyl)carbamoyl)-5-(trifluoromethyl)pyrazol-1-yl)-1-methylcyclohexane-1-carboxylic acid]"
15,97700,"CC(C)(F)CN(CC(=O)c1c(Cl)cncc1Cl)C(=O)c1cnn(C23CCC(C(=O)O)(CC2)CC3)c1C(F)(F)F [Example 327, 4-(4-((2-(3,5-dichloropyridin-4-yl)-2-oxoethyl)-(2-fluoro-2-methylpropyl)carbamoyl)-5-(trifluoromethyl)pyrazol-1-yl)bicyclo[2.2.2]octane-1-carboxylic acid]"
16,> 1e+07,"O=C(CN(C(=O)c1cnn([C@H]2CC[C@H](C(=O)O)CC2)c1C(F)(F)F)C1CCOC1)c1c(Cl)cncc1Cl (stereo partly drawn) [Example 198, trans-4-(4-((2-(3,5-dichloropyridin-4-yl)-2-oxoethyl)-(oxolan3-yl)carbamoyl)-5-(trifluoromethyl)pyrazol-1-yl)cyclohexane-1-carboxylic acid]"
17,4170,"CC1(C)[C@@H]2C[C@H](N(CC(=O)c3c(Cl)cccc3C(F)(F)F)C(=O)c3cnn([C@H]4CC[C@](C)(C(=O)O)CC4)c3C(F)(F)F)C[C@@H]21 [Example 222, trans-4-(4-((2-(2-chloro-6-(trifluoromethyl)phenyl)-2-oxoethyl)-((1R,3r,5S)-6,6-dimethyl-3-bicyclo[3.1.0]hexanyl)carbamoyl)-5-(trifluoromethyl)pyrazol-1-yl)-1-methylcyclohexane-1-carboxylic acid]"
18,7240,"Cc1cc(Cl)c(C(=O)CN(C(=O)c2cnn([C@H]3CC[C@](C)(C(=O)O)CC3)c2C(F)(F)F)[C@H]2C[C@@H]3[C@H](C2)C3(C)C)c(Cl)c1 [Example 277, trans-4-(4-((2-(2,6-dichloro-4-methylphenyl)-2-oxoethyl)((1R,3r,5S)-6,6-dimethylbicyclo[3.1.0]hexan-3-yl)carbamoyl)-5-(trifluoromethyl)-1H-pyrazol-1-yl)-1-methylcyclohexanecarboxylic acid]"
19,8910,"CC1(C)CCC(N(CC(=O)c2c(Cl)cc(Cl)cc2Cl)C(=O)c2cnn([C@H]3CC[C@](C)(C(=O)O)CC3)c2C(F)(F)F)CC1 [Example 191, trans-4-(4-((4,4-dimethylcyclohexyl)-(2-oxo-2-(2,4,6-trichlorophenyl)ethyl)carbamoyl)-5-(trifluoromethyl)pyrazol-1-yl)-1-methylcyclohexane-1-carboxylic acid]"

# — patent publication US9365522B2, “Pyrazole amide derivative” (AMGEN INC., priority 2015, dated 2016)
